Results from paper PMC8477953, “Carnitine is a pharmacological allosteric chaperone of the human lysosomal α-glucosidase” (Journal of Enzyme Inhibition and Medicinal Chemistry, 2021).

Tests used:
Type in all cases: binding
[1] = target: T1, lysosomal acid α-glucosidase (rhGAA) (Homo sapiens, UniProt P10253); assay: DSF thermal shift at […], pH […]; conditions: read-out: delta_Tm
T1 construct: gene GAA; recombinant human GAA (Myozyme)

[2] = target: T1, lysosomal acid α-glucosidase (rhGAA); assay: DSF thermal shift at […], pH […]; conditions: read-out: delta_Tm; remark: listed apart in the source
[3] = target: T1, lysosomal acid α-glucosidase (rhGAA); assay: DSF (SYPRO Orange) titration at pH […] with Kd from cooperative model fit
[4] = target: T1, lysosomal acid α-glucosidase (rhGAA); assay: DSF thermal shift, dose-dependent; rescue of rhGAA activity at pH […]; conditions: read-out: delta_Tm

For `OC[C@H]1NC[C@H](O)[C@@H](O)[C@@H]1O` [compound 1, DNJ], the ΔTm at 100 µM [1] was 12.1 °C.
Molecule `CC(=O)N[C@@H](CS)C(=O)O` [compound 3, N-acetylcysteine] has a ΔTm at 10000 µM [2] of 9.6 ± 0.2 °C.
With `C[N+](C)(C)C[C@H](O)CC(=O)[O-]` [compound 6, L-carnitine] the Kd [3] was 9.16 ± 1.02 mM.
`C[N+](C)(C)C[C@@H](O)CC(=O)[O-]` [compound 7, D-carnitine] showed a ΔTm at 5000 µM [4] of 4.9 ± 0.1 °C.
